These compounds were tested against T1, human FFAR1 (GPR40) (Homo sapiens, UniProt O14842) (assay: NFAT-RE-based reporter gene activity assay (Dual-Glo luciferase) for GPR40 agonistic activity in co-transfected HEK293T cells). Conditions: 4-hour treatment.
T1 construct: Flag; expressed in transfected cells; host or cells: HEK293T
T1 sequence (O14842 whole entry): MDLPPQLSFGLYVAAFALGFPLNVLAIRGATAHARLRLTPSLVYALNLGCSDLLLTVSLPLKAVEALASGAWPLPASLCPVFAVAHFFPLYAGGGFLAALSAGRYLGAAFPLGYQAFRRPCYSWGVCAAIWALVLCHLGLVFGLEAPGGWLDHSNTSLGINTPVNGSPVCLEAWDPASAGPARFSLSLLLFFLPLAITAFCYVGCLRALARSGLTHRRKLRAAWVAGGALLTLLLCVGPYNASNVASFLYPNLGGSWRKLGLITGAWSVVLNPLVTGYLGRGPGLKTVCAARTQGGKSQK
Format: cell-based
Source text: The pcDNA3.0-flag-FFAR1 (GPR40) plasmid was constructed using conventional molecular cloning methods. The main steps were as follows: The full-length cDNA sequence of human FFAR1 (GPR40) (NM_005303.3) was inserted into the HindIII and XbaI restriction sites of the pcDNA3.0 vector via PCR technology, resulting in the pcDNA3.0-flag-FFAR1 (GPR40) plasmid; pGL4.30 [luc2P NFAT-RE] (# E8481) and pRL-TK (#E2241) plasmids were both purchased from Promega; the plasmids were transformed into DH5α E. coli using the CaCl2 method, further cultured and amplified, and then purified using a plasmid extraction kit (TIANGEN, # DP117) to obtain the corresponding plasmid DNA.
HEK293T cells were seeded in a 96-well plate at a density of 1 × 10^4/well one day prior to plasmid transfection. Cell transfection was performed according to the instructions of the transfection reagent FuGENE® HD (Promega, # E2311). The main steps were as follows: Taking one well as an example, plasmids pcDNA3.0-flag-FFAR1 (GPR40), pGL4.30 [luc2P NFAT-RE], and pRL-TK were added at ratios of 50 ng, 50 ng, and 5 ng, respectively, into 10 µL of Opti-MEM™ I medium (Gibco, #11058021) and mixed thoroughly; then, 0.2 µL of FuGENE® HD was added, mixed thoroughly, and allowed to stand at room temperature for 5 minutes; finally, this 10 µL mixture was added to the cell well containing 100 µL of culture medium. 24 hours after co-transfection, the compounds were serially diluted at half-logarithmic intervals with 1 µM as the highest concentration, resulting in 10 concentration gradients, which were added to the cell culture medium for a 4-hour treatment.
After 4 hours of compound treatment, the cells were assayed according to the instructions of the Dual-Glo® Luciferase Assay System (Promega, # E2940). The main steps were as follows: 50 µL of culture medium was aspirated from each well and discarded, followed by the addition of 50 µL of Dual-Glo® Luciferase Reagent, and the mixture was shaken at room temperature for 10 minutes. Then, 80 µL of the lysate reaction solution was transferred to a white opaque optiPlate-96 well plate, and the luminescence signal of Firefly luciferase (Firefly-Luc) was measured using an MD i3x multifunctional microplate reader. Subsequently, 40 µL of Dual-Glo® Stop & Glo® Reagent was added, and the mixture was shaken at room temperature for 10 minutes. Finally, the luminescence signal of Renilla luciferase (Renilla-Luc) was measured using the MD i3x multifunctional microplate reader. The ratio of Firefly-Luc/Renilla-Luc was used as the compound's agonistic activity toward GPR40, and normalization was performed using the ratio of the solvent DMSO group. A dose-response curve was fitted using a four-parameter model with GraphPad Prism 8.0 software to calculate the EC50 value.
Work on `COc1cccc(N2CCC(c3oc4cc(C(CC(=O)O)C5CC5)ccc4c3-c3cnn(C(C)(C)C)c3)CC2)c1F` (centres unmarked) [Compound 86] yielded an EC50 of 0.01 to 0.1 µM.
Work on `COc1cccc(N2CCC(c3oc4cc([C@@H](CC(=O)O)C5CC5)ccc4c3-c3cnn(C(C)(C)C)c3)CC2)c1F` [Compound 87] yielded an EC50 of 0.01 to 0.1 µM.
Compound `COc1cccc(N2CCC(c3oc4cc(C(CC(=O)O)C5CC5)ccc4c3-c3cnn(C(C)(C)C)c3)CC2)c1Cl` (centres unmarked) [Compound 88] has an EC50 of 0.1 to 0.5 µM.
With `COc1ccc(Cl)c(N2CCC(c3oc4cc(C(CC(=O)O)C5CC5)ccc4c3-c3cnn(C(C)(C)C)c3)CC2)c1` (centres unmarked) [Compound 90] the EC50 was 0.1 to 0.5 µM.
`CNC(=O)c1ccc(OC)cc1N1CCC(c2oc3cc(C(CC(=O)O)C4CC4)ccc3c2-c2cnn(C(C)(C)C)c2)CC1` (centres unmarked) [Compound 91] gave an EC50 of 0.1 to 0.5 µM.
`COc1ccc(C(=O)N(C)CC(C)(C)C)c(N2CCC(c3oc4cc([C@@H](CC(=O)O)C5CC5)ccc4c3-c3cnn(C(C)(C)C)c3)CC2)c1` [Compound 92] showed an EC50 of 0.1 to 0.5 µM.
`COc1ccc(C(=O)N(C)c2ccccc2)c(N2CCC(c3oc4cc([C@@H](CC(=O)O)C5CC5)ccc4c3-c3cnn(C(C)(C)C)c3)CC2)c1` [Compound 93] was tested, and the EC50 was 0.1 to 0.5 µM.
`COc1ccc(C(=O)Nc2cccc(C)n2)c(N2CCC(c3oc4cc(C(CC(=O)O)C5CC5)ccc4c3-c3cnn(C(C)(C)C)c3)CC2)c1` (centres unmarked) [Compound 94] showed an EC50 of 0.1 to 0.5 µM.
With `CCCCCCNC(=O)c1ccc(OC)cc1N1CCC(c2oc3cc(C(CC(=O)O)C4CC4)ccc3c2-c2cnn(C(C)(C)C)c2)CC1` (centres unmarked) [Compound 95] the EC50 was 0.1 to 0.5 µM.
Compound `CC(C)(C)n1cc(-c2c(C3CCN(c4ccc5c(c4)OC(F)(F)O5)CC3)oc3cc([C@@H](CC(=O)O)C4CC4)ccc23)cn1` [Compound 96] has an EC50 of 0.1 to 0.5 µM.
`CC(C)(C)n1cc(-c2c(C3CCN(c4ccc5c(c4)OCO5)CC3)oc3cc([C@@H](CC(=O)O)C4CC4)ccc23)cn1` [Compound 97] was tested, and the EC50 was 0.01 to 0.1 µM.
Work on `COc1ccc(F)c(N2CCC(c3oc4cc(C(CC(=O)O)C5CC5)ccc4c3-c3cnn(-c4ccccc4)c3)CC2)c1` (centres unmarked) [Compound 99] yielded an EC50 of 0.1 to 0.5 µM.
In the case of `COc1cccc(N2CCC(c3oc4cc(C(CC(=O)O)C5CC5)ccc4c3-c3cnc(C)s3)CC2)c1` (centres unmarked) [Compound 101], the EC50 is reported as 0.1 to 0.5 µM.
Compound `COc1cccc(N2CCC(c3oc4cc([C@@H](CC(=O)O)C5CC5)ccc4c3-c3cnc(C(C)C)s3)CC2)c1` [Compound 102] has an EC50 of 0.01 to 0.1 µM.
`COc1cccc(N2CCC(c3oc4cc([C@@H](CC(=O)O)C5CC5)ccc4c3-c3cnc(C(C)(C)C)s3)CC2)c1` [Compound 103] gave an EC50 of 0.01 to 0.1 µM.
`COc1cccc(N2CCC(c3oc4cc(C(CC(=O)O)C5CC5)ccc4c3-c3cn(C(C)C)cn3)CC2)c1` (centres unmarked) [Compound 104] was tested, and the EC50 was > 0.5 µM.
`COc1cccc(N2CCC(c3oc4cc([C@@H](CC(=O)O)C5CC5)ccc4c3-c3csc(OC)n3)CC2)c1` [Compound 105] showed an EC50 of 0.01 to 0.1 µM.
With `COc1cccc(N2CCC(c3oc4cc(C(CC(=O)O)C5CC5)ccc4c3-c3csc(C(C)C)n3)CC2)c1` (centres unmarked) [Compound 106] the EC50 was 0.01 to 0.1 µM.
`COc1cccc(N2CCC(c3oc4cc([C@@H](CC(=O)O)C5CC5)ccc4c3-c3csc(C(C)C)n3)CC2)c1` [Compound 107] was tested, and the EC50 was 0.1 to 0.5 µM.

Same assay, conditions: 4-hour treatment, class symbols
With `COc1cccc(N2CCC(c3oc4cc(C(CC(=O)O)C5CC5)ccc4c3-c3cnn(C(C)(C)C)c3)CC2)c1F` (centres unmarked) [Compound 86] the “Efficacy (%)” value was “††† (Efficacy (%) > 150)”.
For `COc1cccc(N2CCC(c3oc4cc([C@@H](CC(=O)O)C5CC5)ccc4c3-c3cnn(C(C)(C)C)c3)CC2)c1F` [Compound 87], the “Efficacy (%)” value was “†† (150 ≥ Efficacy (%) > 100)”.
In the case of `COc1cccc(N2CCC(c3oc4cc(C(CC(=O)O)C5CC5)ccc4c3-c3cnn(C(C)(C)C)c3)CC2)c1Cl` (centres unmarked) [Compound 88], the “Efficacy (%)” value is reported as “†† (150 ≥ Efficacy (%) > 100)”.
In the case of `COc1ccc(Cl)c(N2CCC(c3oc4cc(C(CC(=O)O)C5CC5)ccc4c3-c3cnn(C(C)(C)C)c3)CC2)c1` (centres unmarked) [Compound 90], the “Efficacy (%)” value is reported as “† (100 ≥ Efficacy (%) > 50)”.
For `CNC(=O)c1ccc(OC)cc1N1CCC(c2oc3cc(C(CC(=O)O)C4CC4)ccc3c2-c2cnn(C(C)(C)C)c2)CC1` (centres unmarked) [Compound 91], the “Efficacy (%)” value was “† (100 ≥ Efficacy (%) > 50)”.
For `COc1ccc(C(=O)N(C)CC(C)(C)C)c(N2CCC(c3oc4cc([C@@H](CC(=O)O)C5CC5)ccc4c3-c3cnn(C(C)(C)C)c3)CC2)c1` [Compound 92], the “Efficacy (%)” value was “††† (Efficacy (%) > 150)”.
With `COc1ccc(C(=O)N(C)c2ccccc2)c(N2CCC(c3oc4cc([C@@H](CC(=O)O)C5CC5)ccc4c3-c3cnn(C(C)(C)C)c3)CC2)c1` [Compound 93] the “Efficacy (%)” value was “††† (Efficacy (%) > 150)”.
For `COc1ccc(C(=O)Nc2cccc(C)n2)c(N2CCC(c3oc4cc(C(CC(=O)O)C5CC5)ccc4c3-c3cnn(C(C)(C)C)c3)CC2)c1` (centres unmarked) [Compound 94], the “Efficacy (%)” value was “† (100 ≥ Efficacy (%) > 50)”.
In the case of `CCCCCCNC(=O)c1ccc(OC)cc1N1CCC(c2oc3cc(C(CC(=O)O)C4CC4)ccc3c2-c2cnn(C(C)(C)C)c2)CC1` (centres unmarked) [Compound 95], the “Efficacy (%)” value is reported as “†† (150 ≥ Efficacy (%) > 100)”.
`CC(C)(C)n1cc(-c2c(C3CCN(c4ccc5c(c4)OC(F)(F)O5)CC3)oc3cc([C@@H](CC(=O)O)C4CC4)ccc23)cn1` [Compound 96] was tested, and the “Efficacy (%)” value was “††† (Efficacy (%) > 150)”.
For `CC(C)(C)n1cc(-c2c(C3CCN(c4ccc5c(c4)OCO5)CC3)oc3cc([C@@H](CC(=O)O)C4CC4)ccc23)cn1` [Compound 97], the “Efficacy (%)” value was “†† (150 ≥ Efficacy (%) > 100)”.
In the case of `COc1ccc(F)c(N2CCC(c3oc4cc(C(CC(=O)O)C5CC5)ccc4c3-c3cnn(-c4ccccc4)c3)CC2)c1` (centres unmarked) [Compound 99], the “Efficacy (%)” value is reported as “†† (150 ≥ Efficacy (%) > 100)”.
`COc1cccc(N2CCC(c3oc4cc(C(CC(=O)O)C5CC5)ccc4c3-c3cnc(C)s3)CC2)c1` (centres unmarked) [Compound 101] was tested, and the “Efficacy (%)” value was “†† (150 ≥ Efficacy (%) > 100)”.
In the case of `COc1cccc(N2CCC(c3oc4cc([C@@H](CC(=O)O)C5CC5)ccc4c3-c3cnc(C(C)C)s3)CC2)c1` [Compound 102], the “Efficacy (%)” value is reported as “†† (150 ≥ Efficacy (%) > 100)”.
For `COc1cccc(N2CCC(c3oc4cc([C@@H](CC(=O)O)C5CC5)ccc4c3-c3cnc(C(C)(C)C)s3)CC2)c1` [Compound 103], the “Efficacy (%)” value was “†† (150 ≥ Efficacy (%) > 100)”.
In the case of `COc1cccc(N2CCC(c3oc4cc(C(CC(=O)O)C5CC5)ccc4c3-c3cn(C(C)C)cn3)CC2)c1` (centres unmarked) [Compound 104], the “Efficacy (%)” value is reported as “†† (150 ≥ Efficacy (%) > 100)”.
With `COc1cccc(N2CCC(c3oc4cc([C@@H](CC(=O)O)C5CC5)ccc4c3-c3csc(OC)n3)CC2)c1` [Compound 105] the “Efficacy (%)” value was “†† (150 ≥ Efficacy (%) > 100)”.
`COc1cccc(N2CCC(c3oc4cc(C(CC(=O)O)C5CC5)ccc4c3-c3csc(C(C)C)n3)CC2)c1` (centres unmarked) [Compound 106] was tested, and the “Efficacy (%)” value was “†† (150 ≥ Efficacy (%) > 100)”.
For `COc1cccc(N2CCC(c3oc4cc([C@@H](CC(=O)O)C5CC5)ccc4c3-c3csc(C(C)C)n3)CC2)c1` [Compound 107], the “Efficacy (%)” value was “††† (Efficacy (%) > 150)”.
